Test results from patent US12060573B2, “Stabilized amorphous calcium carbonate as a supplement for cell culture media” (AMORPHICAL LTD., priority 2016, dated 2024).
Several values for one entry are separate records, joined by “and”; a condition that tells them apart may be missing. Identical values can stand only once. Entries after “also recorded” stand apart in the source; their conditions may differ.

How the values were obtained:
mice embryos = assay: In-vitro embryo development in Quinn's Advantage cleavage media; type: cell-based
Method: CBA male mice were bred with BL C57 female mice. The mice were kept on a 12 hours photoperiod schedule with unlimited water and food supply. About 6 to 8 weeks after receiving offspring, each female mouse was injected IP with 5IU of pregnant mare serum gonadotropin (PMSG).
After 48 hours each female mouse was injected IP with 5IU human chorionic gonadotropin (hCG). Male mice proven to be fertile were then put together with the superovulated females. The next morning the female mice were examined for the presence of copulatory plugs. Females that had copulatory plugs were euthanized after 24 hours (approximately 36 hours post-coitus) and embryos at 2 cell stage were retrieved from the oviducts as following: the oviducts were dissected in Quinn's Advantage cleavage media (SAGE, Origio, Denmark) and the embryos were transferred to 20 μL drops with Quinn's Advantage cleavage media (SAGE, Origio, Denmark) overlaid with mineral oil and cultured at 37.0° C. under 5% CO2 and atmospheric oxygen. The collected embryos continued to grow, i.e. in-vitro culture (IVC), until blastocyst/hatching stage. To test the effect of amorphous calcium carbonate, the Quinn's Advantage cleavage media (“cleavage media” hereinafter) was supplemented with different additives, i.e. amorphous calcium carbonate stabilized by polyphosphate (ACC-PP), crystalline calcium carbonate (CCC), polyphosphate (PP), phosphoserine (PS) or sodium carbonate ([…]). All supplements were added as a freshly prepared suspension; the preparation of the ACC supplements were performed under aseptic conditions. Untreated cleavage media (without addition of any additive) was used as a control (identified as Cont Q). The embryos were evaluated every day by microscope observation for a detection of the following stages: 2 cells, compactions stage, blastocysts formation and hatching stage. The fraction (in percent) of the embryos reached each stage was calculated (the number of 2 cells embryos was set as 100%).

[1] = system: spinal cord-dorsal root ganglia (SC-DRG) slices; assay: Nerve fiber sprouting from SC-DRG co-cultures; type: cell-based, rat; details: Ca2+ 2 mM; 4 days of cultivation; portion of 6 explants
Method: Neural and Vascular Reconstruction Gel ([…] Labs proprietary) is composed of two main components: high molecular hyaluronic acid (HA, 3×10^6 Da, BTG, Israel) and laminin (Sigma). […] The gel has the texture of a viscous liquid, it adheres easily and successfully the embedded cells or explants to the plastic or glass substratum, and enabled nerve fiber outgrowth in a 3D pattern. All the experiments were carried out and authorized by the local ethics committee recognized by the Israeli authorities for animal experimentation. Stationary organotypic cultures of dorsal root ganglia (DRG) and spinal cord (SC) as well as cultures of dissociated brain cells were prepared from rat fetuses (15 days of gestation, Lewis inbred, Harlan, Israel). Immediately after dissection, the isolated tissues were cut with a […] tissue chopper into small slices (of 400 μm thickness). In these studies, two tissue culture strategies were used. […] In the second method, the tissue slices were further dissociated with a trypsin-EDTA solution for 30 min, and washed with a culture medium. Subsequently, the dissociated cells were added to a suspension of chitosan powder or gastrolith powder (micro carriers, MCs) and incubated in suspension at 37° C. for 4 days. […] The cultures were monitored by daily phase contrast microscopic observations starting from 24 hours after setting the cultures onward. […]

skeletal muscle cultures = assay: Myotube formation and contractility in healthy skeletal muscle cultures; type: cell-based, rat; details: added 1 mM, final Ca2+ 2 mM
Method: Stationary skeletal muscle cultures were prepared from healthy 1 day new born rat (Sprague Dawley, Harlan, Israel). The muscle tissue was dissected from posterior legs and was thoroughly minced. Digestion was performed with Trypsin-EDTA while gentle trituration. After 30 min the supernatant, containing dissociated cells, was collected and a fresh Trypsin-EDTA was added. This procedure was repeated two more times. Then, all supernatants were pooled, centrifuged, and the cell pellet was re-suspended in Proliferation Medium. Cells were seeded in a Gelatin coated 12 wells culture plates, 1×10^5 cells/well containing 1 mL of Proliferation Medium. Two days later, the medium was changed to Fusion Medium, which was then changed twice a week. The cultures were monitored by daily phase contrast microscopic observations from 24 hours after setting the cultures and onward.
Stock solution of 1% porcine gelatin in water, was sterilized by autoclave. Once cooled, 500 μl of the solution were added to each well of the 12-wells culture plat. After incubation for 20 min at room temperature, the excess solution was removed, and the cells were seeded.
For the proliferation stage, cells were cultured in: DMEM/F12 (containing 1 mM Ca^2+)+10% FBS, 25 μg/mL Gentamycin, and 2 mM L-Glutamine. […]

MBA-13 cells = assay: Differentiation of MBA13 stem cells to osteoblasts (Alizarin red, alkaline phosphatase staining); type: cell-based; details: additional 1 mM calcium (total 2.488 mM); 10 days; gelatin coating
Method: Two days following thawing, MBA-13 cells (received from Prof. Dov Zipori, Weizmann Institute of Science) were re-suspended in recombinant trypsin solution and seeded on a 96 wells plate, (Day “0”) in a concentration of 1×10^4 cells/well using MSC Nutristem® XF basal medium (Biological Industries, cat #05-200-1A) supplemented with Mesenchymal stem cells (MSC) supplement mix medium (Biological Industries cat #05-201-06) in a ratio of 50 ml:300 μl. […] Row G in the plate was treated with MSCgo medium (total 1.488 mM calcium). Row H of the plate was treated with MSC NutriStem® XF nutrient basal medium+ supplement mix (total 1.488 mM calcium). On day 4, medium was exchanged with fresh preparations of ACC. […] Once the cells were fixated, two types of staining reagents were used to stain extracellular calcium or bone deposition in order to estimate osteoblasts functionality: (i) Alizarin red (Sigma A55333) and (ii) Alkaline Phosphatase (DAKO BCIP/NBT substrate system […]) as following: Alizarin red staining procedure-pH was adjusted to 4.2. Cells were washed twice with PBS and fixed with cold methanol for 5 minutes and then washed again with PBS. […] Then, washed 3 times with PBS and following removal of PBS remnants, 3 drops of BCIP/NBT kit solution was used to cover the cells including one empty well without any cells as control to quantify the assay. […]

mdx cell line = details: final Ca2+ 2 mM
Method: Cells from the Mdx cell line were seeded in a Gelatin coated 12 wells culture plate, 3×10^4 cells/well containing 1 mL of Proliferation Medium. Two days later (˜66% confluence), the medium was changed to Fusion Medium which was changed twice a week. The various calcium preparations were separately added to the Fusion Medium according to the treatment described in Table 3. Cultures were enriched with the various calcium preparations, at Ca^2+ concentration of 1 mM. Since the medium already contained 1 mM of calcium ions, then the final concentration of Ca2+ was of 2 mM
The effects of the tested calcium preparations on cell proliferation, fusion to form myotubes and muscle contraction were monitored by daily phase contrast microscopic observation.

[2] = Example 11, 1.6 mM, pooled embryos of mice 3-7
[3] = Example 12, pooled embryos, 1.6 mM
[4] = Example 10, 1.7 mM, embryos of each of 4 mice grown separately, one line per mouse
[5] = Example 14, pooled embryos, 1.7 mM
[6] = Example 15, 1.7 mM, pooled embryos of mice 3-6
[7] = Example 15, 1.7 mM, sibling embryos (mouse 1: CCC; mouse 2: ACC-PP, NaCO3)

polyphosphate [PP]
8 cell/d2, number of embryos (mice embryos; [2]): 9 | Blast/d3, number of embryos (mice embryos; [2]): 20 | Blast/d3, portion of initial number of embryos (mice embryos; [2]): 54.1% | Hatch/d4, number of embryos (mice embryos; [2]): 17 | Hatch/d4, portion of initial number of embryos (mice embryos; [2]): 45.9% | comp/d2, number of embryos (mice embryos; [2]): 20 | 8 cell/d2, number of embryos (mice embryos; [3]): 6 | Blast/d3, number of embryos (mice embryos; [3]): 34 | Blast/d3, portion of initial number of embryos (mice embryos; [3]): 94.44% | Hatch/d4, number of embryos (mice embryos; [3]): 16 | Hatch/d4, portion of initial number of embryos (mice embryos; [3]): 44.44% | comp/d2, number of embryos (mice embryos; [3]): 30

[Ca+2].[Cl-].[Cl-] [CaCl2, calcium chloride]
Cultures with axonal regeneration (%) [1]: 50% | muscle fibers after 7 days (skeletal muscle cultures; 7 days): fewer, thinner and shorter muscle fibers | time to formation of myotubes (skeletal muscle cultures; dry powder suspended in water): myotubes formation was observed later | Blast/d3, number of embryos (mice embryos; Example 7 Test A, 1.7 mM): 16 | Blast/d3, portion of initial number of embryos (mice embryos; Example 7 Test A, 1.7 mM): 64% | Comp/d2, portion of initial number of embryos (mice embryos; Example 7 Test A, 1.7 mM): 64% | comp/d2, number of embryos (mice embryos; Example 7 Test A, 1.7 mM): 16 | Blast/d3, number of embryos (mice embryos; Example 7 Test B, 1.7 mM): 20 | Blast/d3, portion of initial number of embryos (mice embryos; Example 7 Test B, 1.7 mM): 74% | Comp/d2, portion of initial number of embryos (mice embryos; Example 7 Test B, 1.7 mM): 70% | Hatch/d4, number of embryos (mice embryos; Example 7 Test B, 1.7 mM): 11 | Hatch/d4, portion of initial number of embryos (mice embryos; Example 7 Test B, 1.7 mM): 40.7% | comp/d2, number of embryos (mice embryos; Example 7 Test B, 1.7 mM): 20 | Blast/d3, number of embryos (mice embryos; Example 8, 1.7 mM): 8 | Blast/d3, portion of initial number of embryos (mice embryos; Example 8, 1.7 mM): 80% | Comp/d2, portion of initial number of embryos (mice embryos; Example 8, 1.7 mM): 30% | Hatch/d4, number of embryos (mice embryos; Example 8, 1.7 mM): 3 | Hatch/d4, portion of initial number of embryos (mice embryos; Example 8, 1.7 mM): 30% | comp/d2, number of embryos (mice embryos; Example 8, 1.7 mM): 3 | Blast/d3, number of embryos (mice embryos; Example 9, 1.7 mM): 24 | Blast/d3, portion of initial number of embryos (mice embryos; Example 9, 1.7 mM): 80% | Comp/d2, portion of initial number of embryos (mice embryos; Example 9, 1.7 mM): 53.3% | Hatch/d4, number of embryos (mice embryos; Example 9, 1.7 mM): 13 | Hatch/d4, portion of initial number of embryos (mice embryos; Example 9, 1.7 mM): 43.3% | comp/d2, number of embryos (mice embryos; Example 9, 1.7 mM): 16 | 8Cell/d2, number of embryos (mice embryos; Example 10, 1.7 mM, embryos of each of 4 mice (5 months old) grown separately, one line per mouse): 0 (2×) and 4 and 2 | Blast/d3, number of embryos (mice embryos; [4]): 2 and 5 and 12 and 1 | Blast/d3, portion of initial number of embryos (mice embryos; [4]): (8.3) %; also recorded: (22.2) %; also recorded: (50) %; also recorded: (66.7) % | Hatch/d4, number of embryos (mice embryos; [4]): 0 (2×) and 3 and 7 | Hatch/d4, portion of initial number of embryos (mice embryos; [4]): (0) %; also recorded: (30) %; also recorded: (41.2) % | comp/d2, number of embryos (mice embryos; [4]): 3 and 6 and 10 and 1 | effect on embryonic development (blastocysts and hatched blastocysts) (mice embryos; Example 14, 1.7 mM): negative effect on embryonic development | 8 cell/d2, number of embryos (mice embryos; [5]): 6 | Blast/d3, number of embryos (mice embryos; [5]): 10 | Blast/d3, portion of initial number of embryos (mice embryos; [5]): 90.90% | Hatch/d4, number of embryos (mice embryos; [5]): 4 | Hatch/d4, portion of initial number of embryos (mice embryos; [5]): 36.36% | comp/d2, number of embryos (mice embryos; [5]): 5 | Alizarin Red staining (calcium deposition) (MBA-13 cells): weak signal | muscle contractions first observed, day after seeding (mdx cell line): ≥ 10 days

O=C([O-])[O-].[Na+].[Na+] [NaCO3, sodium carbonate]
embryonic development compared to control or ACC-PP (mice embryos; Example 15, 1.7 mM): very poor embryonic development | 8 cell/d2, number of embryos (mice embryos; [6]): 2 | Blast/d3, number of embryos (mice embryos; [6]): 0 | Blast/d4, number of embryos (mice embryos; [6]): 0 | Hatch/d4, number of embryos (mice embryos; [6]): 0 | Hatch/d4, portion of total number of embryos (mice embryos; [6]): (0) % | comp/d2, number of embryos (mice embryos; [6]): 7 | degenerative, number of embryos (mice embryos; [6]): 1 | early Blast/d3, number of embryos (mice embryos; [6]): 0 | 8 cell/d2, number of embryos (mice embryos; [7]): 6 | Blast/d3, number of embryos (mice embryos; [7]): 2 | Blast/d4, number of embryos (mice embryos; [7]): 0 | Hatch/d4, number of embryos (mice embryos; [7]): 2 | Hatch/d4, portion of total number of embryos (mice embryos; [7]): (12.5) % | comp/d2, number of embryos (mice embryos; [7]): 8 | degenerative, number of embryos (mice embryos; [7]): 2 | early Blast/d3, number of embryos (mice embryos; [7]): 14
